Laboratory results published in publication PMC9963587 (Molecules, 2023).
Entries after “also recorded” stand apart in the source; their conditions may differ. Read-outs that look alike come from different tables or passages of the source.

How the values were obtained:
[1] = system: LASVpv (LASV pseudotyped virus bearing LASV GPC, Josiah strain); test: microbe, parasite or virus in culture; type: cell-based, Lassa virus
[2] = in vitro; conditions: human
[3] = target: LASV GP2 (Lassa virus, UniProt P08669); test: biochemical; type: binding; conditions: for kon: read-out: ka
[4] = system: VSV pseudotyped lentivirus (VSVpv); type: cell-based, vesicular stomatitis virus
[5] = system: HEK-293 cells
[6] = Mammarenavirus lassaense, HEK293, 48 h

Chain of LASV GP2 (P08669 260-491 limits assumed): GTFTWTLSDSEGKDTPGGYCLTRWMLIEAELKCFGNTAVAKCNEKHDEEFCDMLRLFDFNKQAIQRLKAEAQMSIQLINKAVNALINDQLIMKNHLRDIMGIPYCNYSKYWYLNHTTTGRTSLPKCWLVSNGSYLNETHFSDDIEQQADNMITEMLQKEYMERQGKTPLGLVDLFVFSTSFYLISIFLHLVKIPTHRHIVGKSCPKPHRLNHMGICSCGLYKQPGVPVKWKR

Molecule	melting point [°C]	IC50 [1, 6] [nM]	CC50 [2] [µM]	Kd [3] [nM]	kd [3] [s⁻¹]	kon [3] [M⁻¹ s⁻¹]	inhibition of LASVpv infection (EGFP expression) [1]	antiviral effect against VSVpv infection [4]	CC50 [5] [µM]	ka [3] [M⁻¹ s⁻¹]	Kd ([3]; read-out: KD) [nM]	IC50 ([1]; read-out: IC50) [nM]	IC50 [1] [nM]
CCOc1ccc(/C=C/c2ccc3c(c2)ncn3-c2ccc(OC(C)C)cc2)cc1 [Compound 7d−E, (E)-5-(4-ethoxystyryl)-1-(4-isopropoxyphenyl)-1H-benzo[d]imidazole]	152 to 153	> 50	> 100	–	–	–	–	–	–	–	–	–	–
CC(C)Oc1ccc(-n2cnc3cc(/C=C\c4ccc(C(C)(C)O)cc4)ccc32)cc1 [LHF−535, reference compound]	–	3.04	3.68	114	0.03	304000	concentration-dependent	little or no effect; also recorded: did not exhibit an antiviral effect	–	–	–	–	–
COc1ccc(-n2cnc3cc(NCc4ccc(Cl)c(Cl)c4)ccc32)cc1 [Compound 13i, N-(3,4-dichlorobenzyl)-1-(4-methoxyphenyl)-1H-benzo[d]imidazol-5-amine]	134.1 to 135.8	53.1	81.7	25400	0.49	19400	–	–	–	–	–	–	–
COc1ccc(-n2cnc3cc(NCc4cc(OC)c(OC)cc4OC)ccc32)cc1 [Compound 13d, 1-(4-methoxyphenyl)-N-(2,4,5-trimethoxybenzyl)-1H-benzo[d]imidazol-5-amine]	167.8 to 169.8	13.8	135	656	0.03	56700	–	–	–	–	–	–	–
N-(2, 4-dimethoxybenzyl)-1-(4-methoxyphenyl)-1H-benzo[d]imidazol-5-amine [Compound 13c]	–	–	–	–	0.03	–	–	–	74.2	39500	825	15.5	–
COc1ccc(CNc2ccc3c(c2)ncn3-c2ccc(OC)cc2)cc1 [Compound 13g, N-(4-methoxybenzyl)-1-(4-methoxyphenyl)-1H-benzo[d]imidazol-5-amine]	128 to 129.3	55.4	100	4690	0.30	65900	–	–	–	–	–	–	–
COc1ccc(-n2cnc3cc(NCc4ccc(C(F)(F)F)cc4)ccc32)cc1 [Compound 13j, 1-(4-methoxyphenyl)-N-(4-(trifluoromethyl)benzyl)-1H-benzo[d]imidazol-5-amine]	198.3 to 200.5	63.8	109	5490	0.04	8530	–	–	–	–	–	–	–
CC(C)Oc1ccc(-n2cnc3cc(/C=C/c4ccc5ccccc5c4)ccc32)cc1 [Compound 7h−E, (E)-1-(4-isopropoxyphenyl)-5-(2-(naphthalen-2-yl)vinyl)-1H-benzo[d]imidazole]	172 to 173	> 50	> 100	–	–	–	–	–	–	–	–	–	–
CC(C)Oc1ccc(-n2cnc3cc(/C=C\c4ccc(OC(F)F)cc4)ccc32)cc1 [Compound 7e−Z, (Z)-5-(4-(difluoromethoxy)styryl)-1-(4-isopropoxyphenyl)-1H-benzo[d]imidazole]	173 to 174	34.4	17.9	1980	0.08	43400	–	–	–	–	–	–	–
COc1ccc(-n2cnc3cc(NCc4ccc(C(C)(C)C)cc4)ccc32)cc1 [Compound 13f, N-(4-(tert-butyl)benzyl)-1-(4-methoxyphenyl)-1H-benzo[d]imidazol-5-amine]	175.8 to 176.9	11.9	102	173	0.03	178000	–	–	–	–	–	–	–
CC(C)Oc1ccc(-n2cnc3cc(/C=C/c4ccc(C(F)(F)F)cc4)ccc32)cc1 [Compound 7g−E, (E)-1-(4-isopropoxyphenyl)-5-(4-(trifluoromethyl)styryl)-1H-benzo[d]imidazole]	166 to 167	> 50	> 100	–	–	–	–	–	–	–	–	–	–
CC(C)Oc1ccc(-n2cnc3cc(/C=C/c4ccc(C#N)cc4)ccc32)cc1 [Compound 7b−E, (E)-4-(2-(1-(4-isopropoxyphenyl)-1H-benzo[d]imidazol-5-yl)vinyl) benzonitrile]	161 to 162	> 50	> 100	–	–	–	–	–	–	–	–	–	–
Cc1ccc(/C=C/c2ccc3c(c2)ncn3-c2ccc(OC(C)C)cc2)cc1 [Compound 7c−E, (E)-1-(4-isopropoxyphenyl)-5-(4-methylstyryl)-1H-benzo[d]imidazole]	168 to 170	> 50	> 100	–	–	–	–	–	–	–	–	–	–
Cc1ccc(/C=C\c2ccc3c(c2)ncn3-c2ccc(OC(C)C)cc2)cc1 [Compound 7c−Z, (Z)-1-(4-isopropoxyphenyl)-5-(4-methylstyryl)-1H-benzo[d]imidazole]	168 to 169	36.9	20.9	1180	0.07	65600	–	–	–	–	–	–	–
CC(C)Oc1ccc(-n2cnc3cc(/C=C\c4ccc(OC(F)(F)F)cc4)ccc32)cc1 [Compound 7f−Z, (Z)-1-(4-isopropoxyphenyl)-5-(4-(trifluoromethoxy)styryl)-1H-benzo[d]imidazole]	161 to 162	33.9	9.47	2190	0.03	15600	–	–	–	–	–	–	–
COc1ccc(-n2cnc3cc(NCc4ccc(C(C)C)cc4)ccc32)cc1 [ST−193, reference compound]	–	44.5	56.3	200	0.01	83200	–	–	–	–	–	–	–
COc1ccc(-n2cnc3cc(NCc4cc(OC)c(O)c(OC)c4)ccc32)cc1 [Compound 13e, 2,6-dimethoxy-4-(((1-(4-methoxyphenyl)-1H-benzo[d]imidazol-5-yl)amino)methyl)phenol]	115.7 to 118.1	50.5	88.8	4390	0.22	50300	–	–	–	–	–	–	–
COc1ccc(-n2cnc3cc(NCc4cccc(O)c4)ccc32)cc1 [Compound 13h, 3-(((1-(4-methoxyphenyl)-1H-benzo[d]imidazol-5-yl)amino)methyl)phenol]	182.9 to 184.3	> 100	40.3	36000	0.42	11900	–	–	–	–	–	–	–
CC(C)Oc1ccc(-n2cnc3cc(/C=C\c4ccc(C(C)(C)C)cc4)ccc32)cc1 [Compound 7a−Z, (Z)-5-(4-(tert-butyl)styryl)-1-(4-isopropoxyphenyl)-1H-benzo[d]imidazole]	172 to 174	–	3.01	146	0.04	328000	–	–	–	–	–	–	–
CC(C)Oc1ccc(-n2cnc3cc(/C=C\c4ccc(C(F)(F)F)cc4)ccc32)cc1 [Compound 7g−Z, (Z)-1-(4-isopropoxyphenyl)-5-(4-(trifluoromethyl)styryl)-1H-benzo[d]imidazole]	165 to 166	29.1	24.4	2700	0.13	–	–	–	–	–	–	–	–
CCOc1ccc(/C=C\c2ccc3c(c2)ncn3-c2ccc(OC(C)C)cc2)cc1 [Compound 7d−Z, (Z)-5-(4-ethoxystyryl)-1-(4-isopropoxyphenyl)-1H-benzo[d]imidazole]	161 to 162	≤ 15	17	307	0.02	86500	–	–	–	–	–	–	13.6
COc1ccc(-n2cnc3cc(NCc4ccc(O)c(OC)c4)ccc32)cc1 [Compound 13b, 2-methoxy-4-(((1-(4-methoxyphenyl)-1H-benzo[d]imidazol-5-yl)amino)methyl)phenol]	157.6 to 159	65.8	87.3	3930	0.20	52300	–	–	–	–	–	–	–
CC(C)Oc1ccc(-n2cnc3cc(/C=C\c4ccc(C#N)cc4)ccc32)cc1 [Compound 7b−Z, (Z)-4-(2-(1-(4-isopropoxyphenyl)-1H-benzo[d]imidazol-5-yl)vinyl) benzonitrile]	165 to 166	> 50	23.6	73400	0.28	3910	–	–	–	–	–	–	–
CC(C)Oc1ccc(-n2cnc3cc(/C=C/c4ccc(OC(F)F)cc4)ccc32)cc1 [Compound 7e−E, (E)-5-(4-(difluoromethoxy)styryl)-1-(4-isopropoxyphenyl)-1H-benzo[d]imidazole]	173 to 174	> 50	> 100	–	–	–	–	–	–	–	–	–	–
COc1ccc(-n2cnc3cc(NCc4ccc(OC)c(O)c4)ccc32)cc1 [Compound 13a, 2-methoxy-5-(((1-(4-methoxyphenyl)-1H-benzo[d]imidazol-5-yl)amino)methyl)phenol]	182.1 to 183.3	47.6	62.6	2780	0.03	13200	–	–	–	–	–	–	–
CC(C)Oc1ccc(-n2cnc3cc(/C=C/c4ccc(C(C)(C)C)cc4)ccc32)cc1 [Compound 7a−E, (E)-5-(4-(tert-butyl)styryl)-1-(4-isopropoxyphenyl)-1H-benzo[d]imidazole]	161 to 162	> 50	> 100	–	–	–	–	–	–	–	–	–	–
CC(C)Oc1ccc(-n2cnc3cc(/C=C/c4ccc(OC(F)(F)F)cc4)ccc32)cc1 [Compound 7f−E, (E)-1-(4-isopropoxyphenyl)-5-(4-(trifluoromethoxy)styryl)-1H-benzo[d]imidazole]	160 to 162	> 50	> 100	–	–	–	–	–	–	–	–	–	–
CC(C)Oc1ccc(-n2cnc3cc(/C=C\c4ccc5ccccc5c4)ccc32)cc1 [Compound 7h−Z, (Z)-1-(4-isopropoxyphenyl)-5-(2-(naphthalene-2-yl)vinyl)-1H-benzo[d]imidazole]	170 to 171	≤ 15	18.9	129	0.03	294000	–	–	–	–	–	–	7.58
